≈ marks a conversion by molar mass, not a printed value.
Key:
[1] = target: T1, UDP-3-O-acyl-N-acetylglucosamine deacetylase (Pseudomonas aeruginosa (strain ATCC 15692 / PAO1 / 1C / PRS 101 / LMG12228), UniProt P47205); assay: Inhibition of Pseudomonas aeruginosa LpxC using UDP-3-O-(R-3-hydroxydecanoyl)-N-acetylglucosamine as substrate preincubated for 20 mins before substrate addition by LC/MS/MS analysis
T1 sequence (P47205 whole entry): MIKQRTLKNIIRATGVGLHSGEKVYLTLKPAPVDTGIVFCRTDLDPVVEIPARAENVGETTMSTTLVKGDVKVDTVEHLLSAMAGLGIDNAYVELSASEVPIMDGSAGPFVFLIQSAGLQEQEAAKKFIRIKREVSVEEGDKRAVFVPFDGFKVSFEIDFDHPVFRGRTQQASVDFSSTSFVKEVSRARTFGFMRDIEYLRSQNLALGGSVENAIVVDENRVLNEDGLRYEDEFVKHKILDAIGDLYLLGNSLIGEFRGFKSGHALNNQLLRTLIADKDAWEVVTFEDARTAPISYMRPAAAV

[2] = tested on: Pseudomonas aeruginosa; assay: Antimicrobial activity against MexABCDXY-deficient Pseudomonas aeruginosa PAO1 ARC546 by CLSI dilution method; type: functional
[3] = tested on: Pseudomonas aeruginosa; assay: Antimicrobial activity against Pseudomonas aeruginosa PAO1 ARC545 by CLSI dilution method; type: functional
[4] = tested on: Escherichia coli; assay: Antimicrobial activity against TolC-deficient Escherichia coli ARC524 W3110 harboring mutant by CLSI dilution method; type: functional
[5] = tested on: Escherichia coli; assay: Antimicrobial activity against Escherichia coli ARC523 W3110 harboring mutant by CLSI dilution method; type: functional
[6] = target: 72 kDa type IV collagenase (Homo sapiens) (UniProt P08253); assay: Inhibition of MMP2 (unknown origin) at 10 uM
[7] = target: Collagenase 3 (Homo sapiens) (UniProt P45452); assay: Inhibition of MMP13 (unknown origin) at 10 uM
[8] = target: 72 kDa type IV collagenase (Homo sapiens) (UniProt P08253); assay: Inhibition of MMP2 (unknown origin) at 30 uM
[9] = target: Collagenase 3 (Homo sapiens) (UniProt P45452); assay: Inhibition of MMP13 (unknown origin) at 30 uM
[10] = target: Collagenase 3 (Homo sapiens) (UniProt P45452); assay: Inhibition of MMP13 (unknown origin) at 15 uM

Chain of 72 kDa type IV collagenase (Homo sapiens) (P08253 110-660 limits assumed): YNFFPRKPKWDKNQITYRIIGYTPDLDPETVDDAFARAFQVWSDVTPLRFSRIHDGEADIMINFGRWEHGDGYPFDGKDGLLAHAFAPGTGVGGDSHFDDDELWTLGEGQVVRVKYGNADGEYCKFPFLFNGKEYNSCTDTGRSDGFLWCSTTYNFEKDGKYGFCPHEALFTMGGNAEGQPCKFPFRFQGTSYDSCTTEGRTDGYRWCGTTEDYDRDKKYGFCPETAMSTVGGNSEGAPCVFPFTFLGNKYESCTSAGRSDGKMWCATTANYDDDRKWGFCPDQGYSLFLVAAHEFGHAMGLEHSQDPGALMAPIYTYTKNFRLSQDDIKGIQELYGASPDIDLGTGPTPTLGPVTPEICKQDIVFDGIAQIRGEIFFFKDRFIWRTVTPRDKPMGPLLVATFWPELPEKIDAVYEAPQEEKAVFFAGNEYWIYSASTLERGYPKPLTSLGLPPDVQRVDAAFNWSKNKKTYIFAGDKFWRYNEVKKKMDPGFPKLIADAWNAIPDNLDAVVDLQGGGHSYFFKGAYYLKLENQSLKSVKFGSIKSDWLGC

O=C(NO)C1(COc2ccc(OCc3ccccc3)cc2)CCOCC1
IC50 [1]: 14 nM
MIC [2]: 6.25 µM (≈ 2.23 µg/mL)
MIC [3]: 200 µM (≈ 71.5 µg/mL)
MIC [4]: 200 µM (≈ 71.5 µg/mL)
MIC [5]: > 200 µM

O=C(NO)C1(C[S+]([O-])c2ccc(C#Cc3ccc(CN4CCOCC4)cc3)cc2)CCOCC1 (racemic)
IC50 [1]: 3.1 nM
MIC [2]: < 0.2 µM
MIC [3]: 25 µM (≈ 12.1 µg/mL)
MIC [4]: < 0.2 µM
MIC [5]: 1.56 µM (≈ 0.753 µg/mL)
inhibition [6]: 97%
inhibition [7]: 96%

O=C(NO)C1(CSc2ccc(C#Cc3ccc(CN4CCOCC4)cc3)cc2)CCOCC1
IC50 [1]: 0.2 nM
MIC [2]: 0.39 µM (≈ 0.182 µg/mL)
MIC [3]: 25 µM (≈ 11.7 µg/mL)
MIC [4]: < 0.2 µM
MIC [5]: 3.13 µM (≈ 1.46 µg/mL)

COC1CCC(COc2ccc(C#Cc3ccc(CN4CCOCC4)cc3)cc2)(C(=O)NO)CC1 (stereo not given)
IC50 [1]: 8.6 nM
MIC [2]: 3.13 µM (≈ 1.5 µg/mL)
MIC [3]: > 200 µM
MIC [4]: 6.25 µM (≈ 2.99 µg/mL)
MIC [5]: 100 µM (≈ 47.9 µg/mL)

O=C(NO)C1(COc2ccc(C#Cc3ccc(CN4CCOCC4)cc3)cc2)CCOCC1
IC50 [1]: 4.4 nM
MIC [2]: 1.56 µM (≈ 0.703 µg/mL)
MIC [3]: 100 µM (≈ 45.1 µg/mL)
MIC [4]: 1.56 µM (≈ 0.703 µg/mL)
MIC [5]: 12.5 µM (≈ 5.63 µg/mL)
inhibition [6]: 94%
inhibition [7]: 82%

CC(=O)N1CCN(Cc2ccc(C#Cc3ccc(OCC4(C(=O)NO)CCOCC4)cc3)cc2)CC1
IC50 [1]: 3 nM
MIC [2]: 0.78 µM (≈ 0.383 µg/mL)
MIC [3]: 50 µM (≈ 24.6 µg/mL)
MIC [4]: 0.39 µM (≈ 0.192 µg/mL)
MIC [5]: 25 µM (≈ 12.3 µg/mL)

COc1ccc(CNCc2ccc(C#Cc3ccc(OCC4(C(=O)NO)CCOCC4)cc3)cc2)cc1
IC50 [1]: 10 nM
MIC [2]: 6.25 µM (≈ 3.13 µg/mL)
MIC [3]: 100 µM (≈ 50.1 µg/mL)
MIC [4]: 12.5 µM (≈ 6.26 µg/mL)
MIC [5]: 50 µM (≈ 25 µg/mL)

O=C(NO)C1(COc2ccc(C#Cc3ccc(CN4CCN(CCN5CCOCC5)CC4)cc3)cc2)CCOCC1
IC50 [1]: 2.7 nM
MIC [2]: 0.78 µM (≈ 0.439 µg/mL)
MIC [3]: 50 µM (≈ 28.1 µg/mL)
MIC [4]: 1.56 µM (≈ 0.878 µg/mL)
MIC [5]: 25 µM (≈ 14.1 µg/mL)

O=C(NO)C1(COc2ccc(Oc3ccccc3)cc2)CCOCC1
IC50 [1]: 92 nM
MIC [2]: 25 µM (≈ 8.58 µg/mL)
MIC [3]: > 200 µM
MIC [4]: > 200 µM
MIC [5]: > 200 µM

O=C(NO)C1(COc2ccc(C#Cc3ccc(CN4CCOCC4)cc3)cc2)CCC(O)CC1 (stereo not given)
IC50 [1]: 82.5 nM
MIC [2]: 25 µM (≈ 11.6 µg/mL)
MIC [3]: > 200 µM
MIC [4]: 25 µM (≈ 11.6 µg/mL)
MIC [5]: > 200 µM

O=C(NO)C1(COc2ccc(C#Cc3ccc(CN4CCN(CCn5ccnc5)CC4)cc3)cc2)CCOCC1
IC50 [1]: 2 nM
MIC [2]: 0.78 µM (≈ 0.424 µg/mL)
MIC [3]: 50 µM (≈ 27.2 µg/mL)
MIC [4]: 0.78 µM (≈ 0.424 µg/mL)
MIC [5]: 6.25 µM (≈ 3.4 µg/mL)
inhibition [6]: 93%
inhibition [7]: 80%

CN(C)CC1CN(Cc2ccc(C#Cc3ccc(OCC4(C(=O)NO)CCOCC4)cc3)cc2)CCO1 (stereo not given)
IC50 [1]: 5.8 nM
MIC [2]: 3.13 µM (≈ 1.59 µg/mL)
MIC [3]: 100 µM (≈ 50.8 µg/mL)
MIC [4]: 6.25 µM (≈ 3.17 µg/mL)
MIC [5]: 200 µM (≈ 102 µg/mL)

CC(C)N1CCN(Cc2ccc(C#Cc3ccc(OCC4(C(=O)NO)CCOCC4)cc3)cc2)CC1
IC50 [1]: 7.5 nM
MIC [2]: 3.13 µM (≈ 1.54 µg/mL)
MIC [3]: 100 µM (≈ 49.2 µg/mL)
MIC [4]: 12.5 µM (≈ 6.15 µg/mL)
MIC [5]: 100 µM (≈ 49.2 µg/mL)

C[C@@H]1CN(Cc2ccc(C#Cc3ccc(OCC4(C(=O)NO)CCOCC4)cc3)cc2)C[C@H](C)O1
IC50 [1]: 2.6 nM
MIC [2]: 3.13 µM (≈ 1.5 µg/mL)
MIC [3]: > 200 µM
MIC [4]: 0.39 µM (≈ 0.187 µg/mL)
MIC [5]: 12.5 µM (≈ 5.98 µg/mL)
inhibition [6]: 92%
inhibition [7]: 75%

C[C@@H](O)[C@H](NC(=O)c1ccc(C#Cc2ccc(CN3CCOCC3)cc2)cc1)C(=O)NO
MIC [2]: < 0.2 µM
MIC [3]: 1.56 µM (≈ 0.682 µg/mL)
MIC [4]: < 0.2 µM
MIC [5]: < 0.2 µM
inhibition [8]: 12%
inhibition [9]: 30%

O=C(NO)C1(COc2ccc(-c3ccccc3)cc2)CCOCC1
IC50 [1]: 8.7 nM
MIC [2]: 6.25 µM (≈ 2.05 µg/mL)
MIC [3]: 100 µM (≈ 32.7 µg/mL)
MIC [4]: > 200 µM
MIC [5]: > 200 µM

CC(C)(O)C#CC#Cc1ccc(OCC2(C(=O)NO)CCOCC2)cc1
IC50 [1]: 139 nM
MIC [2]: 25 µM (≈ 8.94 µg/mL)
MIC [3]: > 200 µM
MIC [4]: 6.25 µM (≈ 2.23 µg/mL)
MIC [5]: 200 µM (≈ 71.5 µg/mL)

CN1CCN(Cc2ccc(C#Cc3ccc(OCC4(C(=O)NO)CCOCC4)cc3)cc2)CC1
IC50 [1]: 6.1 nM
MIC [2]: 1.56 µM (≈ 0.723 µg/mL)
MIC [3]: 100 µM (≈ 46.4 µg/mL)
MIC [4]: 3.13 µM (≈ 1.45 µg/mL)
MIC [5]: 50 µM (≈ 23.2 µg/mL)

O=C(NO)C1(CSc2ccc(Oc3ccc(Cl)cc3)cc2)CCOCC1
IC50 [1]: 7.4 nM
MIC [2]: 6.25 µM (≈ 2.46 µg/mL)
MIC [3]: 50 µM (≈ 19.7 µg/mL)
MIC [4]: 50 µM (≈ 19.7 µg/mL)
MIC [5]: > 200 µM
inhibition [10]: 99%

O=C(NO)C1(COc2ccc(C#CC#Cc3ccccc3)cc2)CCOCC1
IC50 [1]: 33 nM
MIC [2]: > 200 µM
MIC [3]: > 200 µM
MIC [4]: 50 µM (≈ 18.8 µg/mL)
MIC [5]: 200 µM (≈ 75.1 µg/mL)

O=C(CN1CCN(Cc2ccc(C#Cc3ccc(OCC4(C(=O)NO)CCOCC4)cc3)cc2)CC1)N1CCOCC1
IC50 [1]: 1.7 nM
MIC [2]: 12.5 µM (≈ 7.21 µg/mL)
MIC [3]: > 200 µM
MIC [4]: 25 µM (≈ 14.4 µg/mL)
MIC [5]: > 200 µM

Reference: ChEMBL document CHEMBL3352564, “Synthesis, Structure, and SAR of Tetrahydropyran-Based LpxC Inhibitors” (ACS Med Chem Lett, 2014)
